In ChEMBL document CHEMBL6109134, “Discovery of AMG 193, an MTA-Cooperative PRMT5 Inhibitor for the Treatment of MTAP-Deleted Cancers” (J Med Chem, 2025):
Converted amounts (≈) assume the structure as drawn.

Tests used:
human MDR1 (P-gp) = experiment: Efflux ratio of permeability across basolateral to apical side over apical to basolateral side in MDCK cells transfected with human MDR1 in absence of elacridar; details: dog
[1] = Solubility of compound in Hcl buffer at pH 2.0
[2] = Metabolic stability in dog liver microsomes assessed as intrinsic clearance; format: ADME, Canis lupus familiaris, Microsome; details: read-out: CLH
[3] = Unbound clearance in Sprague-Dawley rat at 0.5 mg/kg, iv; format: ADME, organism-based; details: in vivo
[4] = target: Protein arginine N-methyltransferase 5 (Homo sapiens) (UniProt O14744); experiment: Selectivity ratio of dissociation rate for binding affinity to PRMT5 (unknown origin) in presence of SAM to dissociation rate for binding affinity to PRMT5 (unknown origin) in presence of MTA
[5] = Unbound CSF-to-plasma concentration ratio in male Sprague-Dawley rat at 25 mg/kg, po administered as single dose; format: ADME, organism-based
[6] = Unbound brain-to-plasma concentration ratio in female Sprague-Dawley rat at 75 mg/kg, po administered as single dose; format: ADME, organism-based; details: read-out: K(p,uu,brain)
[7] = Unbound CSF-to-plasma concentration ratio in male Sprague-Dawley rat at 75 mg/kg, po administered as single dose; format: ADME, organism-based
[8] = target: PRMT5/MEP50 complex (Homo sapiens) (UniProt O14744+Q9BQA1); experiment: Inhibition of human PRMT5/MEP50 at 10 uM relative to control; format: protein-complex assay
[9] = target: Protein arginine N-methyltransferase 5 (Homo sapiens) (UniProt O14744); experiment: In vivo inhibition of PRMT5 in athymic nude mouse xenografted with MTAP-deleted human HCT-116 cells assessed as decrease in SDMA level in tumor at 100 mg/kg, po administered once daily for 4 days and measured 4 hrs post last dose by ELISA relative to control; format: functional, organism-based; details: time 4.0 day
HCT-116 = experiment: Antitumor activity against MTAP-deleted human HCT-116 cells xenografted in female athymic nude mouse model assessed as tumor growth inhibition at 30 mg/kg, po administered once daily for 14 days relative to control; format: functional; details: HCT-116, 336 h, time 14 day, read-out: TGI
[10] = Toxicity in female athymic nude mouse xenografted with human HCT-116 cells harboring wildtype MTAP assessed as body weight change at 3 to 100 mg/kg, po administered once daily for 14 days; format: organism-based; details: in vivo, 336 h, dose 3-100 mg/kg, time 14 day
[11] = Antitumor activity against MTAP-deleted human U-87 MG cells xenografted in female athymic nude mouse model assessed as tumor growth inhibition at 10 mg/kg, po administered once daily for 14 days and measured 24 hrs post last dose relative to control; format: functional, U-87MG ATCC; details: 360 h, time 15 day, read-out: TGI
[12] = Antitumor activity against MTAP-deleted human U-87 MG cells xenografted in female athymic nude mouse model assessed as tumor growth inhibition at 300 mg/kg, po administered once daily for 14 days and measured 24 hrs post last dose relative to control; format: functional, U-87MG ATCC; details: 360 h, time 15 day, read-out: TGI
[13] = target: Protein arginine N-methyltransferase 5 (Homo sapiens) (UniProt O14744); experiment: In vivo inhibition of PRMT5 in female athymic nude mouse xenografted with MTAP-deleted human U-87 MG cells assessed as decrease in SDMA level in tumor at 10 mg/kg, po administered once daily for 14 days and measured 2 to 8 hrs post last dose by ELISA relative to control; format: functional, organism-based; details: time 338-344 hrs
[14] = target: Protein arginine N-methyltransferase 5 (Homo sapiens) (UniProt O14744); experiment: In vivo inhibition of PRMT5 in female athymic nude mouse xenografted with MTAP-deleted human U-87 MG cells assessed as decrease in SDMA level in tumor at 100 mg/kg, po administered once daily for 14 days and measured 2 to 8 hrs post last dose by ELISA relative to control; format: functional, organism-based; details: time 338-344 hrs
[15] = Toxicity in athymic nude mouse xenografted with MTAP-deleted human BXPC-3 cells assessed as effect on body weight at 10 to 100 mg/kg, po administered once daily for 26 days; format: organism-based; details: in vivo, 624 h, dose 10-100 mg/kg, time 26 day
PRMT5/MEP50 complex = PRMT5/MEP50 complex (Homo sapiens, UniProt O14744)
PRMT5/MEP50 complex, sequence (O14744 whole entry): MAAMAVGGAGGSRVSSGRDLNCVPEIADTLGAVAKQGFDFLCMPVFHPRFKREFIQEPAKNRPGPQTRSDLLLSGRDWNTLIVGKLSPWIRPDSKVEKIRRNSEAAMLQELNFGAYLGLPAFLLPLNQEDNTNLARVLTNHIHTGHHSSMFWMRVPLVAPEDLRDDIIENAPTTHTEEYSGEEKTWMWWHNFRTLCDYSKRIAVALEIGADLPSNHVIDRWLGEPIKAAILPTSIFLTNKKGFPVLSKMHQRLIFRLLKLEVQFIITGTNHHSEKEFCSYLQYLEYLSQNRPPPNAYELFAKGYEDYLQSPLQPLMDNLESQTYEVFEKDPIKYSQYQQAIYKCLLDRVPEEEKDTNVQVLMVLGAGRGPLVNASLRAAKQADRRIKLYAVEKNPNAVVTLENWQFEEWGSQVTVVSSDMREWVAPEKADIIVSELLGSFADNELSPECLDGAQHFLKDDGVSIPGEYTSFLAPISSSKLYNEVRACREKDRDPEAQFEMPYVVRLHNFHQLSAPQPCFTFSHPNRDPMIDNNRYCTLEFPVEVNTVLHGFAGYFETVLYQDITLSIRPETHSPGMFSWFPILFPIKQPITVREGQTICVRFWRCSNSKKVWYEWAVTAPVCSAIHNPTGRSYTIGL
PRMT5/MEP50 complex, sequence (Q9BQA1 whole entry, further chain): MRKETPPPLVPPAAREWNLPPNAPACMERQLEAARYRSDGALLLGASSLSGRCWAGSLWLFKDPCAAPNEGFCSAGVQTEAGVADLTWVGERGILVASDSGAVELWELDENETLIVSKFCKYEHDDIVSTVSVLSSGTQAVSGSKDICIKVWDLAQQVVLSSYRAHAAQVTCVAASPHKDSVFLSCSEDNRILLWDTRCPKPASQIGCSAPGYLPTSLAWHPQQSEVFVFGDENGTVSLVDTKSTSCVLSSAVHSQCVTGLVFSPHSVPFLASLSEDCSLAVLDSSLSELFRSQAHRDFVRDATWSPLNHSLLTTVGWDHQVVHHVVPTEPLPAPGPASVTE
Description: Inhibition of PRMT5/MEP50 (unknown origin) preincubated with compound for 24 hrs in presence of SAM and MTA followed by Histone H4 (1-21)-Lys(Biotin) peptide addition and measured after 2 hrs by MTase-Glo reagent based assay

Protein arginine N-methyltransferase 5 (Homo sapiens), sequence (O14744 whole entry): as the sequence (O14744 whole entry) above

efflux ratio (human MDR1 (P-gp)): 3
solubility [1]: 492 µM (≈ 219 µg/mL)
microsomal CLint [2]: 14 µL/min/mg
CL free [3]: 17 L/h/kg
Selectivity ratio [4]: 60
Kp uu [5]: 0.24
Kp uu [6]: 0.12
Kp uu [7]: 0.13
inhibition [8]: 84%
inhibition [9]: 71%
inhibition [13]: 68%
inhibition [14]: 83%
Ki (PRMT5/MEP50 complex): < 0.1 nM
SMILES: Nc1nc2cnc(C(=O)N3CCOC[C@@H]3c3ccc(C(F)(F)F)cc3)cc2c2c1COC2
inhibition in vivo at 30 mg/kg (HCT-116): 74%
Activity [10]: Non-toxic
inhibition in vivo at 10 mg/kg [11]: 42%
inhibition in vivo at 300 mg/kg [12]: 88%
Activity [15]: Non-toxic
